We go through 14 compounds from patent US12351571B2, “Substituted quinoxaline compounds as inhibitors of FGFR tyrosine kinases” (ARRAY BIOPHARMA INC., priority 2018, dated 2025).

The structures appear in SMILES notation.

In general, IC50 refers to the concentration that gives 50% inhibition.

In one assay the target is dephosphorylated FGFR2 (Homo sapiens (Human), UniProt P21802). The assay can be described thus: FGFR Enzyme Binding Assay (HTRF tracer displacement), FGFR2. The settings on record: 5 nM dephosphorylated FGFR2, 60 minute incubation at 22° C.; read-out: FGFR2 Enz Binding IC50. The procedure: The potency of compounds inhibiting human isoforms of FGFR kinase was determined using Life Technologies' Homogeneous Time Resolved Fluorescence (HTRF)-based binding assay technology. An incubation was conducted with either 5 nM dephosphorylated FGFR1 (Array Biopharma, p1702; SEQ ID NO: 1, amino acids 458 to 765, dephosphorylated by co-expression with PTP1b (protein tyrosine phosphatase 1B)), 5 nM dephosphorylated FGFR2 (Life Technologies, Cat. No. PV4106 that had been dephosphorylated with Lambda protein phosphatase (New England Biolabs, cat #P0753)) or 5 nM phosphorylated FGFR3 (Array Biopharma, p1836; SEQ ID NO: 5, amino acids 449 to 759), 50 nM Kinase Tracer 236 (Life Technologies Cat. No. PR9078A), 2 nM Biotin-anti-6HIS (Life Technologies Cat. No. PV6090) and 2 nM Europium-Streptavidin (Life Technologies Cat. No. PV6025) along with test compound in a buffer consisting of 50 mM HEPES ((4-(2-hydroxyethyl)-1-piperazineethanesulfonic acid, pH 7.5), 5 mM MgCl2, 0.005% Triton X-100, 1 mM DTT, 1 mM NaVO4 and 2% DMSO in a final volume of 12 μL Compounds were typically prepared as a 3-fold or 4-fold serial dilution in DMSO and added to the assay to give the appropriate final concentration. After a 60 minute incubation at 22° C., the extent of tracer displacement was determined using a PerkinElmer EnVision multimode plate reader via HTRF dual wavelength detection, and the percent of control (POC) was calculated using a ratiometric emission factor. One hundred POC was determined using no test compound, and 0 POC was determined in the presence of 1 μM of an appropriate control inhibitor. A 4-parameter logistic curve was fit to the POC values as a function of the concentration of compound, and the IC50 value was the point where the best-fit curve crossed 50 POC.
(In general: TR-FRET usually uses a lanthanide donor and a delayed reading to cut background.)

The target in assay [1] is recombinant human FGFR2 cytoplasmic domain (Homo sapiens (Human), UniProt P21802). As to the kind of experiment: FGFR Enzyme Activity Assay (LanthaScreen TR-FRET), FGFR2. It is filed as biochemical. The settings on record: 15 μM ATP, 20 minute incubation; read-out: FGFR2 Enz FRET IC50. How it is done: FGFR2 kinase activity was measured by the Invitrogen LanthaScreen™ Assay technology which directly measures the amount of substrate phosphorylation by TR-FRET using a flourescently-labeled peptide and Europium-labeled antibody. Briefly, 200 pM His-tagged recombinant human FGFR2 cytoplasmic domain (amino acids 403-822) (Life Technologies Cat. No. PR5332A) was incubated with 100 nM Alexa Fluor® 647-Poly-GT Peptide Substrate (Life Technologies Cat. No. PV5836) and 15 μM ATP along with test compound in a buffer consisting of 250 mM HEPES, 25 mM MgCl2, 0.05% TritonX-100, pH 7.5, and 2% DMSO. Compounds were typically prepared in a threefold serial dilution in DMSO and added to the assay to give the appropriate final concentration. After a 20 minute incubation at 22° C., an equal volume of 2 nM LanthaScreen® Eu-PY20 Antibody (Life Technologies Cat. No. PV5691) and 10 mM EDTA were added to quench the kinase reaction and start the detection reaction. After an additional 60 minute incubation at 22° C., the reaction was measured using a PerkinElmer EnVision multimode plate reader via TR-FRET dual wavelength detection, and the percent of control (POC) calculated using a ratiometric emission factor. 100 POC was determined using no test compounds and 0 POC was determined using no enzyme. The POC values were fit to a 4-parameter logistic curve as a function of the concentration of the compound, and the IC50 value is the point where the curve crosses 50 POC.

The target of a further assay is human wild type FGFR2 (Homo sapiens (Human), UniProt P21802). As to the kind of experiment: FGFR2 pFGFR Cell Assay. It is filed as cell-based. To be noted: HEK-293 cells, 1 hour compound, 30 ng/ml human FGF-acidic, ELISA. How it is done: HEK-293 cells transfected with dox-inducible human wild type FGFR2 (SEQ ID NO: 3) were plated in a collagen or poly-D-lysine coated 96 well flat bottom plates at 4×10^5 cells/well in complete DMEM medium containing 10% FBS and 1 μg/ml doxycycline and allowed to attach for 24 h at 37° C., 5% CO2. Cells were treated with compound using 1:3 serial dilutions with a maximum final concentration of 5 μM. Compound was incubated on cells for 1 hour at 37° C., 5% CO2. Cells were then stimulated with a final concentration of 30 ng/ml human FGF-acidic (R&D Systems Cat number 232-FA/CF) for 5 minutes at 37° C., 5% CO2. Medium was removed and cells were lysed with lysis buffer containing phosphatase and protease inhibitors. Phospho FGFR2 was measured by ELISA (R&D Systems cat. no. DYC684). The ELISA captures total FGFR2 and detects total phospho tyrosine. Optical density was measured for each well using a Versamax reader at a wavelength of 450 nm. 100 POC was determined using no test compounds and 0 POC was determined using a control compound. The POC values were fit to a 4-parameter logistic curve as a function of the concentration of the compound, and the IC50 value is the point where the curve crosses 50 POC.
Chain of human wild type FGFR2 (P21802 22-821): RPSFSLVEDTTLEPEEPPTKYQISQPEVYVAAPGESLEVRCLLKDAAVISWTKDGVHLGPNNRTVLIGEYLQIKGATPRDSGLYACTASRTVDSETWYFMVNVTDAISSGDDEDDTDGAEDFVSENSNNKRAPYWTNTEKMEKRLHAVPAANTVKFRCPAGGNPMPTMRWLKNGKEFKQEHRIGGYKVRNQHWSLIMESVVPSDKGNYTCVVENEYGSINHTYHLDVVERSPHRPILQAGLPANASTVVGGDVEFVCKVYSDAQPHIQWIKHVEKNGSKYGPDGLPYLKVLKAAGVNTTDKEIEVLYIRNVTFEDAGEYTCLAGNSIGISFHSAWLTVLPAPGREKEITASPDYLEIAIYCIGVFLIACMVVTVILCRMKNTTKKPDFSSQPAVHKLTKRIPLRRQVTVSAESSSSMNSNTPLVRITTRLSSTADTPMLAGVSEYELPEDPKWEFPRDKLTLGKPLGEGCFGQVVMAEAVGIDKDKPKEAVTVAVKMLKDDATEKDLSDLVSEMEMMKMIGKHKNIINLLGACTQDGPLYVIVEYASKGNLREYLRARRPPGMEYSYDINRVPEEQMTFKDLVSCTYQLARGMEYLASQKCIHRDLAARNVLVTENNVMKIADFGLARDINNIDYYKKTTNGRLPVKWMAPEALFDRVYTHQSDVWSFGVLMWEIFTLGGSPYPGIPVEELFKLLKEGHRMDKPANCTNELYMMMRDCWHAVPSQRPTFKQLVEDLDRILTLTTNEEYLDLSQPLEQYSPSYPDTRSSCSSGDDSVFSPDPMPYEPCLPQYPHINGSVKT

Chain of recombinant human FGFR2 cytoplasmic domain (P21802 402-821): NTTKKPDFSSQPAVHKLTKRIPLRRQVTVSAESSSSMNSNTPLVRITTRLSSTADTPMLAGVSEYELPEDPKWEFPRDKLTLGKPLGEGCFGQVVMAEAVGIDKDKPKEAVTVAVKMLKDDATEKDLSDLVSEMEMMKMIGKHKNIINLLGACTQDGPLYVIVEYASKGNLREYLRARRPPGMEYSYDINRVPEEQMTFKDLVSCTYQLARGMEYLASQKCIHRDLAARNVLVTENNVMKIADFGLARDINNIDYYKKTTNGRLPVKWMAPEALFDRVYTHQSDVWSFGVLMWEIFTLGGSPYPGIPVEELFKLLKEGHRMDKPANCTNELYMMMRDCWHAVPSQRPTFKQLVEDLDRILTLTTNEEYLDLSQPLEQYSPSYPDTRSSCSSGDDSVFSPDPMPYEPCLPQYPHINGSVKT
Chain of dephosphorylated FGFR2 (P21802 22-821): as the sequence (P21802 22-821) above

On to `C=CC(=O)N1CC(O)(C(=O)N2CCC(n3cc(-c4cnc5ccc(Nc6cc(OC)cc(OC)c6)cc5n4)cn3)CC2)C1` [Example 26, 1-(3-(4-(4-(7-((3,5-dimethoxyphenyl)amino)quinoxalin-2-yl)-1H-pyrazol-1-yl)piperidine-1-carbonyl)-3-hydroxyazetidin-1-yl)prop-2-en-1-one], for which the IC50 on dephosphorylated FGFR2 was determined as 5 nM; in assay [1] it was 121 nM.
In the case of `COc1cc(Nc2ccc3ncc(-c4c(C)nn(C5CCN(C(=O)C6(F)CN(C(=O)/C=C/CN(C)C)C6)CC5)c4C)nc3c2)cc(OC)c1` [Example 23, (E)-1-(3-(4-(4-(7-((3,5-dimethoxyphenyl)amino)-quinoxalin-2-yl)-3,5-dimethyl-1H-pyrazol-1-yl)piperidine-1-carbonyl)-3-fluoroazetidin-1-yl)-4-(dimethylamino)but-2-en-1-one], the values for the IC50 (at dephosphorylated FGFR2; in assay [1]) were 38 nM and 3460 nM, respectively.
On to `C=CC(=O)N1CC(O)(C(=O)N2CCC(n3cc(-c4cnc5ccc(N(C)c6cc(OC)cc(OC)c6)cc5n4)cn3)CC2)C1` [Example 27, 1-(3-(4-(4-(7-((3,5-dimethoxyphenyl)(methyl)amino)quinoxalin-2-yl)-1H-pyrazol-1-yl)piperidine-1-carbonyl)-3-hydroxyazetidin-1-yl)prop-2-en-1-one], for which the IC50 at dephosphorylated FGFR2 was found to be 3 nM; in assay [1], 12 nM; against human wild type FGFR2, 37 nM.
As to `COc1cc(Nc2ccc3ncc(-c4cnn(C5CCN(C(=O)C6(F)CN(C(=O)/C=C/CN(C)C)C6)CC5)c4C)nc3c2)cc(OC)c1` [Example 17, (E)-1-(3-(4-(4-(7-((3,5-dimethoxyphenyl)amino)-quinoxalin-2-yl)-5-methyl-1H-pyrazol-1-yl)piperi-dine-1-carbonyl)-3-fluoroazetidin-1-yl)-4-(dimethylamino)but-2-en-1-one], the IC50 is 118 nM in assay [1] and 170 nM on human wild type FGFR2.
As to `C=CC(=O)N1CC(C(=O)N2CCN(c3ccc(-c4cnc5ccc(Nc6cc(OC)cc(OC)c6)cc5n4)cn3)CC2)C1` [Example 5, 1-(3-(4-(5-(7-((3,5-dimethoxyphenyl)amino)-quinoxalin-2-yl)pyridin-2-yl)piperazine-1-carbonyl)azetidin-1-yl)-prop-2-en-1-one], the IC50 in assay [1] came out at 365 nM; against human wild type FGFR2, 486 nM.
For the compound `C=CC(=O)N1CC(CN2CCC(n3cc(-c4cnc5ccc(Nc6cc(OC)cc(OC)c6)cc5n4)cn3)CC2)C1` [Example 30, 1-(3-((4-(4-(7-((3,5-dimethoxyphenyl)amino)quinoxalin-2-yl)-1H-pyrazol-1-yl)piperidin-1-yl)methyl)azetidin-1-yl)prop-2-en-1-one], the IC50 on dephosphorylated FGFR2 stood at 5 nM; in assay [1], 159 nM; against human wild type FGFR2 it was 62 nM.
`COc1cc(Nc2ccc3ncc(-c4cnn(C5CCN(C(=O)C6(F)CN(C(=O)/C=C/CN(C)C)C6)CC5)c4)nc3c2)cc(OC)c1` [Example 10, (E)-1-(3-(4-(4-(7-((3,5-dimethoxyphenyl)amino)-quinoxalin-2-yl)-1H-pyrazol-1-yl)piperidine-1-carbonyl)-3-fluoro-azetidin-1-yl)-4-(dimethylamino)but-2-en-1-one]: the IC50 at dephosphorylated FGFR2 was determined as 6 nM; in assay [1] it was 11 nM; on human wild type FGFR2, 28 nM.
On to `C=CC(=O)N1CC(C(=O)N2CCN(c3cccc(-c4cnc5ccc(Nc6cc(OC)cc(OC)c6)cc5n4)c3)CC2)C1` [Example 25, 1-(3-(4-(3-(7-((3,5-dimethoxyphenyl)amino)-quinoxalin-2-yl)phenyl)-piperazine-1-carbonyl)-azetidin-1-yl)prop-2-en-1-one], for which the IC50 on dephosphorylated FGFR2 worked out at 157 nM; in assay [1], 1740 nM.
On to `C=CC(=O)N1CC(OC)(C(=O)N2CCC(n3cc(-c4cnc5ccc(Nc6cc(OC)cc(OC)c6)cc5n4)cn3)CC2)C1` [Example 24, 1-(3-(4-(4-(7-((3,5-dimethoxyphenyl)amino)-quinoxalin-2-yl)-1H-pyrazol-1-yl)piperidine-1-carbonyl)-3-methoxy-azetidin-1-yl)prop-2-en-1-one], for which the figures for the IC50 (at dephosphorylated FGFR2; in assay [1]; against human wild type FGFR2) were 8 nM, 211 nM and 49 nM, respectively.
Take `COc1cc(Nc2ccc3ncc(-c4cnc(N5CCN(C(=O)C6(F)CN(C(=O)/C=C/CN(C)C)C6)CC5)cc4C)nc3c2)cc(OC)c1` [Example 14, (E)-1-(3-(4-(5-(7-((3,5-dimethoxyphenyl)amino)-quinoxalin-2-yl)-4-methylpyridin-2-yl)-piperazine-1-carbonyl)-3-fluoroazetidin-1-yl)-4-(dimethylamino)but-2-en-1-one]: the IC50 was determined as 290 nM on dephosphorylated FGFR2 and 666 nM in assay [1].
In the case of `COc1cc(Nc2ccc3ncc(-c4ccc(N5CCN(C(=O)C6CN(C(=O)/C=C/CN(C)C)C6)CC5)nc4)nc3c2)cc(OC)c1` [Example 6, (E)-1-(3-(4-(5-(7-((3,5-dimethoxyphenyl)amino)-quinoxalin-2-yl)pyridin-2-yl)piperazine-1-carbonyl)azetidin-1-yl)-4-(dimethylamino)but-2-en-1-one], the IC50 was found to be 14 nM at dephosphorylated FGFR2 and 124 nM in assay [1].
In the case of `C#CCN(c1cc(OC)cc(OC)c1)c1ccc2ncc(-c3cnn(C4CCN(C(=O)C5(F)CN(C(=O)/C=C/CN(C)C)C5)CC4)c3)nc2c1` [Example 28, (E)-1-(3-(4-(4-(7-((3,5-dimethoxyphenyl)(prop-2-yn-1-yl)amino)quinoxalin-2-yl)-1H-pyrazol-1-yl)piperidine-1-carbonyl)-3-fluoroazetidin-1-yl)-4-(dimethylamino)but-2-en-1-one], the IC50 stood at 3 nM at dephosphorylated FGFR2, 5 nM in assay [1] and 6 nM against human wild type FGFR2.
As to `COc1cc(Nc2ccc3ncc(-c4ccc(N5CCN(C(=O)C6(F)CN(C(=O)/C=C/CN(C)C)C6)CC5)nc4)nc3c2)cc(OC)c1` [Example 7, (E)-1-(3-(4-(5-(7-((3,5-dimethoxyphenyl)amino)-quinoxalin-2-yl)pyridin-2-yl)piperazine-1-carbonyl)-3-fluoroazetidin-1-yl)-4-(dimethylamino)but-2-en-1-one], the results for the IC50 (at dephosphorylated FGFR2; in assay [1]; against human wild type FGFR2) were 18 nM, 227 nM and 182 nM, respectively.
For `C=CC(=O)N1CC(C(=O)N2CC[C@@H](n3cc(-c4cnc5ccc(Nc6cc(OC)cc(OC)c6)cc5n4)cn3)C2)C1` [Example 21, (R)-1-(3-(3-(4-(7-((3,5-dimethoxyphenyl)amino)-quinoxalin-2-yl)-1H-pyrazol-1-yl)pyrrolidine-1-carbonyl)azetidin-1-yl)prop-2-en-1-one], in assay [1], the 50% inhibitory concentration (IC50) was 187 nM.
